Laboratory results reported in patent US10004701B2, “Methods and compositions for treating infection” (UNIVERSITY OF ROCHESTER, priority 2012, dated 2018).
Counter-ions that a name gives are not always drawn. Like-named read-outs stand apart in the source and are kept apart here.

Assays:
Experiment in all cases: AK assay 384-well format, Prestwick library screening
E. faecium = format: cell-based, Enterococcus faecium; settings: 50 μM final drug concentration; for fold induction at 50 µM: Enterococcus faecium, 3 h
[1] = tested on: S. aureus strain USA300-0114; format: cell-based, Staphylococcus aureus; settings: 50 μM final drug concentration; for fold induction at 50 µM: Staphylococcus aureus, USA300, 3 h
K. pneumoniae = format: cell-based, Klebsiella pneumoniae; settings: 50 μM final drug concentration; for fold induction at 50 µM: Klebsiella pneumoniae, 3 h
[2] = tested on: A. baumannii strain 98-37-09; format: cell-based, Acinetobacter baumannii; settings: 50 μM final drug concentration; for fold induction at 50 µM: Acinetobacter baumannii, 983709, 3 h
P. aeruginosa = format: cell-based, Pseudomonas aeruginosa; settings: 50 μM final drug concentration; for fold induction at 50 µM: Pseudomonas aeruginosa, 3 h
E. cloacae = format: cell-based, Enterobacter cloacae; settings: 50 μM final drug concentration; for fold induction at 50 µM: Enterobacter cloacae, 3 h
E. coli = format: cell-based, Escherichia coli; settings: 50 μM final drug concentration; for fold induction at 50 µM: Escherichia coli, 3 h
[3] = planktonic, cutoff for positive-scoring molecules 3-fold increase, read-out: AK-based Prestwick Library Screening Results, E. faecium (fold increase in extracellular AK activity)
[4] = planktonic, cutoff for positive-scoring molecules 3-fold increase, read-out: AK-based Prestwick Library Screening Results, S. aureus (fold increase in extracellular AK activity)
[5] = planktonic, cutoff for positive-scoring molecules 3-fold increase, read-out: AK-based Prestwick Library Screening Results, K. pneumoniae (fold increase in extracellular AK activity)
[6] = planktonic, cutoff for positive-scoring molecules 3-fold increase, read-out: AK-based Prestwick Library Screening Results, A. baumannii (fold increase in extracellular AK activity)
[7] = planktonic, cutoff for positive-scoring molecules 3-fold increase, read-out: AK-based Prestwick Library Screening Results, P. aeruginosa (fold increase in extracellular AK activity)
[8] = planktonic, cutoff for positive-scoring molecules 3-fold increase, read-out: AK-based Prestwick Library Screening Results, E. cloacae (fold increase in extracellular AK activity)
[9] = planktonic, cutoff for positive-scoring molecules 3-fold increase, read-out: AK-based Prestwick Library Screening Results, E. coli (fold increase in extracellular AK activity)
[10] = cutoff for positive-scoring molecules 3-fold increase, read-out: AK-based Prestwick Library Screening Results, E. faecium (fold increase in extracellular AK activity)
[11] = cutoff for positive-scoring molecules 3-fold increase, read-out: AK-based Prestwick Library Screening Results, S. aureus (fold increase in extracellular AK activity)
[12] = cutoff for positive-scoring molecules 3-fold increase, read-out: AK-based Prestwick Library Screening Results, K. pneumoniae (fold increase in extracellular AK activity)
[13] = cutoff for positive-scoring molecules 3-fold increase, read-out: AK-based Prestwick Library Screening Results, A. baumannii (fold increase in extracellular AK activity)
[14] = cutoff for positive-scoring molecules 3-fold increase, read-out: AK-based Prestwick Library Screening Results, P. aeruginosa (fold increase in extracellular AK activity)
[15] = cutoff for positive-scoring molecules 3-fold increase, read-out: AK-based Prestwick Library Screening Results, E. cloacae (fold increase in extracellular AK activity)
[16] = cutoff for positive-scoring molecules 3-fold increase, read-out: AK-based Prestwick Library Screening Results, E. coli (fold increase in extracellular AK activity)
[17] = cutoff for positive-scoring molecules 3-fold increase

In the case of CCc1cc(C(N)=S)ccn1 [Ethionamide], the fold induction at 50 µM (E. faecium; planktonic, cutoff for positive 3-fold increase, read-out: AK-based Prestwick Library Screening Results, E. faecium (fold increase in extracellular AK activity)) is reported as 1, the fold induction at 50 µM ([1]; planktonic, cutoff for positive 3-fold increase, read-out: AK-based Prestwick Library Screening Results, S. aureus (fold increase in extracellular AK activity)) is reported as 1.3 and the fold induction at 50 µM (K. pneumoniae; planktonic, cutoff for positive 3-fold increase, read-out: AK-based Prestwick Library Screening Results, K. pneumoniae (fold increase in extracellular AK activity)) is reported as 1. It also gave a fold induction at 50 µM ([2]; planktonic, cutoff for positive 3-fold increase, read-out: AK-based Prestwick Library Screening Results, A. baumannii (fold increase in extracellular AK activity)) of 1.2, a fold induction at 50 µM (P. aeruginosa; planktonic, cutoff for positive 3-fold increase, read-out: AK-based Prestwick Library Screening Results, P. aeruginosa (fold increase in extracellular AK activity)) of 1.1 and a fold induction at 50 µM (E. cloacae; planktonic, cutoff for positive 3-fold increase, read-out: AK-based Prestwick Library Screening Results, E. cloacae (fold increase in extracellular AK activity)) of 1.4. The fold induction at 50 µM (E. coli; planktonic, cutoff for positive 3-fold increase, read-out: AK-based Prestwick Library Screening Results, E. coli (fold increase in extracellular AK activity)) was 1.1.
In the case of C#C[C@]1(O)CC[C@H]2[C@@H]3CCC4=CC(=O)CC[C@]4(C)[C@H]3CC[C@@]21C [Ethisterone], the fold induction at 50 µM (E. faecium; 384-well format, […], read-out: AK-based Prestwick Library Screening Results, E. faecium (increase in extracellular AK activity)) is reported as 0.9, the fold induction at 50 µM ([1]; 384-well format, […], read-out: AK-based Prestwick Library Screening Results, S. aureus (increase in extracellular AK activity)) is reported as 0.8 and the fold induction at 50 µM (K. pneumoniae; 384-well format, […], read-out: AK-based Prestwick Library Screening Results, K. pneumoniae (increase in extracellular AK activity)) is reported as 0.8. For the same compound, the fold induction at 50 µM ([2]; 384-well format, […], read-out: AK-based Prestwick Library Screening Results, A. baumannii (increase in extracellular AK activity)) was 0.9, the fold induction at 50 µM (P. aeruginosa; 384-well format, […], read-out: AK-based Prestwick Library Screening Results, P. aeruginosa (increase in extracellular AK activity)) was 1 and the fold induction at 50 µM (E. cloacae; 384-well format, […], read-out: AK-based Prestwick Library Screening Results, E. cloacae (increase in extracellular AK activity)) was 1.1. The fold induction at 50 µM (E. coli; 384-well format, […], read-out: AK-based Prestwick Library Screening Results, E. coli (increase in extracellular AK activity)) was 1.
Work on CCN(CC)C(C)CN1c2ccccc2Sc2ccccc21 (stereo not shown) [Ethopropazine hydrochloride] yielded a fold induction at 50 µM (E. faecium; [3]) of 0.9, a fold induction at 50 µM [1, 4] of 0.7 and a fold induction at 50 µM (K. pneumoniae; [5]) of 0.8. For the same compound, the fold induction at 50 µM [2, 6] was 1, the fold induction at 50 µM (P. aeruginosa; [7]) was 1 and the fold induction at 50 µM (E. cloacae; [8]) was 1.3. For the same compound, the fold induction at 50 µM (E. coli; [9]) was 0.9.
With CCC1(C)CC(=O)NC1=O (stereo not shown) [Ethosuximide] the fold induction at 50 µM (E. faecium; 384-well format, cutoff for positive-scoring molecules 3-fold increase, read-out: AK-based Prestwick Library Screening Results, E. faecium (increase in extracellular AK activity)) was 0.9, the fold induction at 50 µM ([1]; 384-well format, cutoff for positive-scoring molecules 3-fold increase, read-out: AK-based Prestwick Library Screening Results, S. aureus (increase in extracellular AK activity)) was 0.5 and the fold induction at 50 µM (K. pneumoniae; 384-well format, cutoff for positive-scoring molecules 3-fold increase, read-out: AK-based Prestwick Library Screening Results, K. pneumoniae (increase in extracellular AK activity)) was 0.6. It also gave a fold induction at 50 µM ([2]; 384-well format, cutoff for positive-scoring molecules 3-fold increase, read-out: AK-based Prestwick Library Screening Results, A. baumannii (increase in extracellular AK activity)) of 0.5, a fold induction at 50 µM (P. aeruginosa; 384-well format, cutoff for positive-scoring molecules 3-fold increase, read-out: AK-based Prestwick Library Screening Results, P. aeruginosa (increase in extracellular AK activity)) of 0.5 and a fold induction at 50 µM (E. cloacae; 384-well format, cutoff for positive-scoring molecules 3-fold increase, read-out: AK-based Prestwick Library Screening Results, E. cloacae (increase in extracellular AK activity)) of 0.6. For the same compound, the fold induction at 50 µM (E. coli; 384-well format, cutoff for positive-scoring molecules 3-fold increase, read-out: AK-based Prestwick Library Screening Results, E. coli (increase in extracellular AK activity)) was 0.6.
Work on CCN1C(=O)NC(c2ccccc2)C1=O (stereo not shown) [Ethotoin] yielded a fold induction at 50 µM (E. faecium; [10]) of 1, a fold induction at 50 µM [1, 11] of 1.2 and a fold induction at 50 µM (K. pneumoniae; [12]) of 1. It also gave a fold induction at 50 µM [2, 13] of 1.1, a fold induction at 50 µM (P. aeruginosa; [14]) of 0.9 and a fold induction at 50 µM (E. cloacae; [15]) of 1.6. It also gave a fold induction at 50 µM (E. coli; [16]) of 1.2.
Compound CCOc1ccc2c(c1)C(C)=CC(C)(C)N2 [Ethoxyquin] has a fold induction at 50 µM (E. faecium; [3]) of 0.9, a fold induction at 50 µM [1, 4] of 1.1 and a fold induction at 50 µM (K. pneumoniae; [5]) of 0.9. For the same compound, the fold induction at 50 µM [2, 6] was 0.9, the fold induction at 50 µM (P. aeruginosa; [7]) was 1.1 and the fold induction at 50 µM (E. cloacae; [8]) was 1.4. It also gave a fold induction at 50 µM (E. coli; [9]) of 1.1.
C#C[C@]1(OC(C)=O)CC[C@H]2[C@@H]3CCC4=C[C@@H](OC(C)=O)CC[C@@H]4[C@H]3CC[C@@]21C [Ethynodiol diacetate] was tested, and the fold induction at 50 µM (E. faecium; [3]) was 0.9, the fold induction at 50 µM [1, 4] was 0.5 and the fold induction at 50 µM (K. pneumoniae; [5]) was 0.7. It also gave a fold induction at 50 µM [2, 6] of 0.9, a fold induction at 50 µM (P. aeruginosa; [7]) of 0.9 and a fold induction at 50 µM (E. cloacae; [8]) of 1.1. For the same compound, the fold induction at 50 µM (E. coli; [9]) was 0.8.
For C#C[C@]1(O)CC[C@H]2[C@@H]3CCc4cc(OC)ccc4[C@H]3CC[C@@]21C [Ethynylestradiol 3-methyl ether], the “AK-based Prestwick Library Screening Results, E. faecium (fold increase in extracellular AK activity)” value (E. faecium; [17]) was 0.9, the “AK-based Prestwick Library Screening Results, S. aureus (fold increase in extracellular AK activity)” value [1, 17] was 0.8 and the “AK-based Prestwick Library Screening Results, K. pneumoniae (fold increase in extracellular AK activity)” value (K. pneumoniae; [17]) was 0.8. For the same compound, the “AK-based Prestwick Library Screening Results, A. baumannii (fold increase in extracellular AK activity)” value [2, 17] was 1.1, the “AK-based Prestwick Library Screening Results, P. aeruginosa (fold increase in extracellular AK activity)” value (P. aeruginosa; [17]) was 1.1 and the “AK-based Prestwick Library Screening Results, E. cloacae (fold increase in extracellular AK activity)” value (E. cloacae; [17]) was 1.5. The “AK-based Prestwick Library Screening Results, E. coli (fold increase in extracellular AK activity)” value (E. coli; [17]) was 1.2.
In the case of CC(O)(P(=O)(O)O)P(=O)(O)O [Etidronic acid, disodium salt], the fold induction at 50 µM (E. faecium; [10]) is reported as 1, the fold induction at 50 µM [1, 11] is reported as 1.2 and the fold induction at 50 µM (K. pneumoniae; [12]) is reported as 1. The fold induction at 50 µM [2, 13] was 1.2, the fold induction at 50 µM (P. aeruginosa; [14]) was 1.1 and the fold induction at 50 µM (E. cloacae; [15]) was 1.4. For the same compound, the fold induction at 50 µM (E. coli; [16]) was 1.3.
In the case of CCc1cccc(CC)c1NC(=O)CN(CC(=O)O)CC(=O)O [Etifenin], the fold induction at 50 µM (E. faecium; planktonic E. faecium, cutoff for positive-scoring molecules 3-fold increase, read-out: AK-based Prestwick Library Screening Results, E. faecium (increase in extracellular AK activity)) is reported as 0.9, the fold induction at 50 µM ([1]; planktonic S. aureus, cutoff for positive-scoring molecules 3-fold increase, read-out: AK-based Prestwick Library Screening Results, S. aureus (increase in extracellular AK activity)) is reported as 0.5 and the fold induction at 50 µM (K. pneumoniae; planktonic K. pneumoniae, cutoff for positive-scoring molecules 3-fold increase, read-out: AK-based Prestwick Library Screening Results, K. pneumoniae (increase in extracellular AK activity)) is reported as 0.8. The fold induction at 50 µM ([2]; planktonic A. baumannii, cutoff for positive-scoring molecules 3-fold increase, read-out: AK-based Prestwick Library Screening Results, A. baumannii (increase in extracellular AK activity)) was 0.9, the fold induction at 50 µM (P. aeruginosa; planktonic P. aeruginosa, cutoff for positive-scoring molecules 3-fold increase, read-out: AK-based Prestwick Library Screening Results, P. aeruginosa (increase in extracellular AK activity)) was 0.9 and the fold induction at 50 µM (E. cloacae; planktonic E. cloacae, cutoff for positive-scoring molecules 3-fold increase, read-out: AK-based Prestwick Library Screening Results, E. cloacae (increase in extracellular AK activity)) was 1. For the same compound, the fold induction at 50 µM (E. coli; planktonic E. coli, cutoff for positive-scoring molecules 3-fold increase, read-out: AK-based Prestwick Library Screening Results, E. coli (increase in extracellular AK activity)) was 1.1.
